Data reported in PubChem BioAssay AID1259407 (Chemical Carcinogenesis Research Information System (CCRIS), 2018).
Active and inactive are the calls of the source. No rule for the calls is given here.

Tested on: CCRIS mutagenicity, Ames/micronucleus/aberration tests
Experiment: CCRIS mutagenicity studies
[1] = Test System: AMES SALMONELLA TYPHIMURIUM, Strain/Indicator: TA100, Metabolic Activation: NONE, Method: STANDARD PLATE
[2] = Test System: AMES SALMONELLA TYPHIMURIUM, Strain/Indicator: TA1535, Metabolic Activation: NONE, Method: STANDARD PLATE
[3] = Test System: AMES SALMONELLA TYPHIMURIUM, Strain/Indicator: TA98, Metabolic Activation: NONE, Method: PREINCUBATION
[4] = Test System: AMES SALMONELLA TYPHIMURIUM, Strain/Indicator: TA98, Metabolic Activation: NONE, Method: STANDARD PLATE
[5] = Test System: AMES SALMONELLA TYPHIMURIUM, Strain/Indicator: TA100, Metabolic Activation: RAT, LIVER, S-9, AROCLOR 1254, Method: STANDARD PLATE
[6] = Test System: AMES SALMONELLA TYPHIMURIUM, Strain/Indicator: TA102, Metabolic Activation: NONE, Method: STANDARD PLATE
[7] = Test System: AMES SALMONELLA TYPHIMURIUM, Strain/Indicator: TA1537, Metabolic Activation: NONE, Method: STANDARD PLATE
[8] = Test System: AMES SALMONELLA TYPHIMURIUM, Strain/Indicator: TA1538, Metabolic Activation: NONE, Method: STANDARD PLATE
[9] = Test System: E. COLI, Strain/Indicator: WP2 UVRA, Metabolic Activation: NONE, Method: STANDARD PLATE

ClC1CO1 (stereo unspecified)
mutagenic call (Test System: CHINESE HAMSTER V-79, Strain/Indicator: V-79/8-AZAGUANINE, Metabolic Activation: NONE, Method: STANDARD PLATE): active; positive
mutagenic call (Test System: CHINESE HAMSTER V-79, Strain/Indicator: V-79/OUABAIN, Metabolic Activation: NONE, Method: STANDARD PLATE): active; positive
mutagenic call (Test System: HUMAN H2E1 CELLS, Strain/Indicator: HPRT/6-THIOGUANINE, Metabolic Activation: NONE, Method: SUSPENSION/MICROTITER PLATE): active; positive

O=c1cc[nH]c2ccccc12
mutagenic call [1]: inactive; negative
mutagenic call (Test System: AMES SALMONELLA TYPHIMURIUM, Strain/Indicator: TA100, Metabolic Activation: RAT, LIVER, S-9, AROCLOR 1254 (10% OR 20%), Method: STANDARD PLATE): inactive; negative

CCNC(=O)N(C=O)CCN(C)C
mutagenic call [2]: active; positive

COc1ccccc1NC(=O)C(N=Nc1ccc(-c2ccc(N=NC(C(C)=O)C(=O)Nc3ccccc3OC)c(Cl)c2)cc1Cl)C(C)=O (stereo unspecified)
mutagenic call (Test System: AMES SALMONELLA TYPHIMURIUM, Strain/Indicator: TA98, Metabolic Activation: HAMSTER, LIVER, S-9, Method: PREINCUBATION (PRIVAL METHOD)): inactive; negative

[O]=[Cr](=[O])([OH])[O][Cr](=[O])(=[O])[OH]
mutagenic call (Test System: AMES SALMONELLA TYPHIMURIUM, Strain/Indicator: TA92, Metabolic Activation: NONE, Method: STANDARD PLATE): active; positive
mutagenic call (Test System: AMES SALMONELLA TYPHIMURIUM, Strain/Indicator: TA97, Metabolic Activation: HAMSTER, LIVER, S-9, AROCLOR 1254 (30%), Method: PREINCUBATION): active; positive
mutagenic call (Test System: AMES SALMONELLA TYPHIMURIUM, Strain/Indicator: TA97, Metabolic Activation: NONE, Method: PREINCUBATION): active; positive
mutagenic call (Test System: AMES SALMONELLA TYPHIMURIUM, Strain/Indicator: TA97, Metabolic Activation: RAT, LIVER, S-9, AROCLOR 1254 (30%), Method: PREINCUBATION): active; positive
mutagenic call (Test System: AMES SALMONELLA TYPHIMURIUM, Strain/Indicator: TA97A, Metabolic Activation: NONE, Method: MICROSUSPENSION-PREINCUBATION): active; positive
mutagenic call (Test System: AMES SALMONELLA TYPHIMURIUM, Strain/Indicator: TA97A, Metabolic Activation: RAT, LIVER, S-9, AROCLOR 1254, Method: MICROSUSPENSION-PREINCUBATION): active; positive
mutagenic call (Test System: AMES SALMONELLA TYPHIMURIUM, Strain/Indicator: TA98, Metabolic Activation: HAMSTER, LIVER, S-9, AROCLOR 1254 (30%), Method: PREINCUBATION): active; positive
mutagenic call (Test System: AMES SALMONELLA TYPHIMURIUM, Strain/Indicator: TA98, Metabolic Activation: NONE, Method: MICROSUSPENSION-PREINCUBATION): active; positive
mutagenic call [3]: active; positive
mutagenic call [4]: active; positive
mutagenic call (Test System: AMES SALMONELLA TYPHIMURIUM, Strain/Indicator: TA98, Metabolic Activation: RAT, LIVER, S-9, AROCLOR 1254 (30%), Method: PREINCUBATION): active; positive
mutagenic call (Test System: AMES SALMONELLA TYPHIMURIUM, Strain/Indicator: TA98, Metabolic Activation: RAT, LIVER, S-9, AROCLOR 1254, Method: MICROSUSPENSION-PREINCUBATION): active; positive
mutagenic call (Test System: AMES SALMONELLA TYPHIMURIUM, Strain/Indicator: TA98, Metabolic Activation: RAT, LIVER, S-9, Method: STANDARD PLATE): active; positive
mutagenic call (Test System: AMES SALMONELLA TYPHIMURIUM, Strain/Indicator: TA100, Metabolic Activation: HAMSTER, LIVER, S-9, AROCLOR 1254 (30%), Method: PREINCUBATION): active; positive
mutagenic call (Test System: AMES SALMONELLA TYPHIMURIUM, Strain/Indicator: TA100, Metabolic Activation: NONE, Method: MICROSUSPENSION-PREINCUBATION): active; positive
mutagenic call (Test System: AMES SALMONELLA TYPHIMURIUM, Strain/Indicator: TA100, Metabolic Activation: NONE, Method: PREINCUBATION): active; positive
mutagenic call (Test System: AMES SALMONELLA TYPHIMURIUM, Strain/Indicator: TA100, Metabolic Activation: RAT, LIVER, S-9, AROCLOR 1254 (30%), Method: PREINCUBATION): active; positive
mutagenic call (Test System: AMES SALMONELLA TYPHIMURIUM, Strain/Indicator: TA100, Metabolic Activation: RAT, LIVER, S-9, AROCLOR 1254, Method: MICROSUSPENSION-PREINCUBATION): active; positive
mutagenic call [5]: active; positive
mutagenic call (Test System: AMES SALMONELLA TYPHIMURIUM, Strain/Indicator: TA100, Metabolic Activation: RAT, LIVER, S-9, Method: STANDARD PLATE): active; positive
mutagenic call (Test System: AMES SALMONELLA TYPHIMURIUM, Strain/Indicator: TA102, Metabolic Activation: NONE, Method: FLUCTUATION TEST): active; positive
mutagenic call (Test System: AMES SALMONELLA TYPHIMURIUM, Strain/Indicator: TA102, Metabolic Activation: NONE, Method: MICROSUSPENSION-PREINCUBATION): active; positive
mutagenic call [6]: active; positive
mutagenic call (Test System: AMES SALMONELLA TYPHIMURIUM, Strain/Indicator: TA102, Metabolic Activation: RAT, LIVER, S-9, AROCLOR 1254, Method: MICROSUSPENSION-PREINCUBATION): active; positive
mutagenic call (Test System: AMES SALMONELLA TYPHIMURIUM, Strain/Indicator: TA103, Metabolic Activation: NONE, Method: STANDARD PLATE): active; positive
mutagenic call (Test System: AMES SALMONELLA TYPHIMURIUM, Strain/Indicator: TA104, Metabolic Activation: NONE, Method: STANDARD PLATE): active; positive
mutagenic call [2]: inactive; negative
mutagenic call (Test System: AMES SALMONELLA TYPHIMURIUM, Strain/Indicator: TA1535, Metabolic Activation: RAT, LIVER, S-9, Method: STANDARD PLATE): inactive; negative
mutagenic call [7]: inactive; negative
mutagenic call (Test System: AMES SALMONELLA TYPHIMURIUM, Strain/Indicator: TA1537, Metabolic Activation: RAT, LIVER, S-9, Method: STANDARD PLATE): inactive; negative
mutagenic call [8]: inactive; negative
mutagenic call (Test System: AMES SALMONELLA TYPHIMURIUM, Strain/Indicator: TA1538, Metabolic Activation: RAT, LIVER, S-9, Method: STANDARD PLATE): inactive; negative
mutagenic call (Test System: AMES SALMONELLA TYPHIMURIUM, Strain/Indicator: TA2638, Metabolic Activation: NONE, Method: PREINCUBATION): active; positive
mutagenic call (Test System: AMES SALMONELLA TYPHIMURIUM, Strain/Indicator: TA2638, Metabolic Activation: NONE, Method: STANDARD PLATE): active; positive
mutagenic call (Test System: AMES SALMONELLA TYPHIMURIUM, Strain/Indicator: TA2638A, Metabolic Activation: NONE, Method: STANDARD PLATE): active; positive
mutagenic call (Test System: E. COLI, Strain/Indicator: WP2 (PKM101), Metabolic Activation: NONE, Method: STANDARD PLATE): active; positive
mutagenic call (Test System: E. COLI, Strain/Indicator: WP2 UVRA (PKM101), Metabolic Activation: NONE, Method: STANDARD PLATE): active; positive
mutagenic call (Test System: E. COLI, Strain/Indicator: WP2 UVRA, Metabolic Activation: NONE, Method: SPOT TEST): active; positive
mutagenic call [9]: active; positive
mutagenic call (Test System: UDS HUMAN AMNION FL CELL LINE, Strain/Indicator: THY INCORP, Metabolic Activation: NONE, Method: LIQUID SCINTILLATION COUNTING): active; positive

CCCCCCC[N+](=O)[O-]
mutagenic call (Test System: UDS RAT HEPATOCYTES, Strain/Indicator: THY INCORP, Metabolic Activation: NONE): inactive; negative

CS(=O)CCC(=O)N1[C@@H](c2ccccc2O)SC[C@H]1C(=O)O (stereo partly specified)
mutagenic call [4]: inactive; negative
mutagenic call [1]: inactive; negative
mutagenic call [2]: inactive; negative
mutagenic call [7]: inactive; negative
mutagenic call [8]: inactive; negative
mutagenic call (Test System: E. COLI, Strain/Indicator: WP2, Metabolic Activation: NONE, Method: STANDARD PLATE): inactive; negative
mutagenic call [9]: inactive; negative

CCOC(=O)[C@@H](N)CS
mutagenic call [6]: active; positive

COc1ccc(N(CCCl)CCCl)c2oc([N+](=O)[O-])cc12
mutagenic call (Test System: AMES SALMONELLA TYPHIMURIUM, Strain/Indicator: TA100(NR), Metabolic Activation: NONE, Method: STANDARD PLATE): active; positive
mutagenic call (Test System: AMES SALMONELLA TYPHIMURIUM, Strain/Indicator: TA100(NR), Metabolic Activation: RAT, LIVER, S-9, AROCLOR 1254, Method: STANDARD PLATE): active; positive
mutagenic call [1]: active; positive
mutagenic call [5]: active; positive

O=S(=O)(O)OCc1ccc2ccc3cccc4ccc1c2c34
mutagenic call [3]: active; positive
